Source: patent US9388148B2, “Acylaminocycloalkyl compounds suitable for treating disorders that respond to modulation of dopamine D3 receptor” (AbbVie Deutschland GmbH & Co. KG, priority 2013, dated 2016)

Experiments:
[1] = target: T1, human dopamine D3 receptors (Homo sapiens, UniProt P35462); assay: Dopamine D3 receptor binding ([125I]-iodosulpride displacement); conditions: membranes of HEK-293 cells with human D3 receptors, 0.1 nM [125I]-iodosulpride
T1 construct: expressed in transfected cells; host or cells: HEK-293
T1 sequence (P35462 whole entry): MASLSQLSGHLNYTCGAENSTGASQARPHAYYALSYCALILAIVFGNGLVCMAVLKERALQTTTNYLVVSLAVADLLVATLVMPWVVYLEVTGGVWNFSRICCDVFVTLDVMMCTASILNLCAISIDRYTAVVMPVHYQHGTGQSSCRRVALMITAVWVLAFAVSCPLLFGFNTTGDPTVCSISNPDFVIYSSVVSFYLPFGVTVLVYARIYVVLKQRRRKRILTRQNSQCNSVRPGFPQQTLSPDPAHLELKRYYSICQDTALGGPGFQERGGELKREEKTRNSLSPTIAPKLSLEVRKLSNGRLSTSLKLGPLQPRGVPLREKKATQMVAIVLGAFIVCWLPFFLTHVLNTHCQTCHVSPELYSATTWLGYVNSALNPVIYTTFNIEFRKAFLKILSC
Experimental: (§1) The substance to be tested was either dissolved in methanol/Chremophor® (BASF SE) or in dimethyl sulfoxide and then diluted with water to the desired concentration.
(§2) Each assay mixture was run in triplicate. • The incubation buffer contained 50 mM tris, 120 mM NaCl, 5 mM KCl, 2 mM CaCl2, 2 mM MgCl2 and 0.1% bovine serum albumin, 10 μM quinolone and 0.1% ascorbic acid (prepared fresh daily). […] Each assay mixture was run in triplicate. • The incubation buffer contained 50 mM tris, 120 mM NaCl, 5 mM KCl, 2 mM CaCl2, 2 mM MgCl2 and 0.1% bovine serum albumin. The buffer was adjusted to pH 7.4 with HCl. c) Measurement and analysis: • After having been incubated at 25° C. for 60 minutes, the assay mixtures were filtered through a Whatman GF/B glass fiber filter under vacuum using a cell col-lecting device. The filters were transferred to scintillation viols using a filter transfer system. After 4 ml of Ultima Gold® (Packard) have been added, the samples were shaken for one hour and the radioactivity was then counted in a Beta-Counter (Packard, Tricarb 2000 or 2200CA).

[2] = target: T2, human dopamine D2L receptors (long isoform) (Homo sapiens, UniProt P14416); assay: Dopamine D2L receptor binding ([125I]iodospiperone displacement); conditions: selectivity ratio, human D2L vs human D3 binding
T2 construct: expressed in transfected cells; host or cells: HEK-293
T2 sequence (P14416 whole entry, canonical isoform): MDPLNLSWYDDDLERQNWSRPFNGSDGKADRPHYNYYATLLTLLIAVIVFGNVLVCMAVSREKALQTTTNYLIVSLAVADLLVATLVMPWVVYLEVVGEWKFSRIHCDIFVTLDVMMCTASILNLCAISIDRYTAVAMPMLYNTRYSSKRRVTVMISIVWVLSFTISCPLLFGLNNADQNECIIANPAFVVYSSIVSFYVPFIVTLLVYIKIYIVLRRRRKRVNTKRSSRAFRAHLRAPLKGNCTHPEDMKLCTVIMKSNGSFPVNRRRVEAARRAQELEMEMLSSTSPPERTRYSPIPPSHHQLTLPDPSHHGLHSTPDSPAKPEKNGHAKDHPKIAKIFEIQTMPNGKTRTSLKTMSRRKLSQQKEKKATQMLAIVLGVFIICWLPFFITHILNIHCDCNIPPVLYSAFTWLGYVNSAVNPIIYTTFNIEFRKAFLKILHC
Experimental: as §1, §2

[3] = Determination of the microsomal half-life / microsomal clearance; type: in vitro ADME; conditions: pH 7.4; human liver microsomes, 0.5 μM test substance, 0.25 mg protein/ml, NADPH, 37° C.; read-out: Human mCl (mikrosomal clearance)
Experimental: The metabolic stability of the compounds of the invention was determined in the following assay.
The test substances were incubated in a concentration of 0.5 μM as follows:
0.5 μM test substance are preincubated together with liver microsomes from different species (from rat, human or other species) (0.25 mg of microsomal protein/ml) in 0.05 M potassium phosphate buffer of pH 7.4 in microtiter plates at 37° C. for 5 min. The reaction is started by adding NADPH (1 mg/mL). After 0, 5, 10, 15, 20 and 30 min, 50 μl aliquots are removed, and the reaction is immediately stopped and cooled with the same volume of acetonitrile. The samples are frozen until analyzed. The remaining concentration of undegraded test substance is determined by MSMS. The half-life (T1/2) is determined from the gradient of the signal of test substance/unit time plot, it being possible to calculate the half-life of the test substance, assuming first order kinetics, from the decrease in the concentration of the compound with time. The microsomal clearance (mC1) is calculated from mC1=1n2/T1/2/(content of microsomal protein in mg/ml)×1000 [ml/min/mg] (modified from references: Di, The Society for Biomoleculur Screening, 2003, 453-462; Obach, DMD, 1999 vol 27. N 11, 1350-1359).

SMILES: CO[C@H]1C[C@H](C(=O)NC2CCC(CCN3CCN(c4cc(C(C)C)nc(C(C)(C)C)n4)CC3)CC2)C1 (relative stereo) [Compound 49, Trans-N-[4-[2-[4-(2-tert-butyl-6-isopropyl-pyrimidin-4-yl)-piperazin-1-yl]ethyl]cyclohexyl]-3-methoxy-cyclobutanecarboxamide]
- Ki [1]: < 10 nM
- D2/D3, Ki (D2L)/Ki (D3) [2]: +++ (+++ >50)

SMILES: CC(C)c1cc(N2CCN(CCC3CCC(NC(=O)[C@H]4C[C@H](O)C4)CC3)CC2)nc(C(C)(C)C)n1 (relative stereo) [Compound 50, Trans-N-[4-[2-[4-(2-tert-butyl-6-isopropyl-pyrimidin-4-yl)-piperazin-1-yl]ethyl]cyclohexyl]-3-hydroxy-cyclobutanecarboxamide]
- Ki [1]: < 10 nM
- D2/D3, Ki (D2L)/Ki (D3) [2]: +++ (+++ >50)

SMILES: CC(C)(C)c1nc(C2CCC2)cc(N2CCN(CC[C@H]3C[C@H](NC(=O)[C@H]4C[C@H](O)C4)C3)CC2)n1.O=C(O)C(F)(F)F [Compound 39, trans-N-[trans-3-[2-[4-(2-tert-butyl-6-cyclobutyl-pyrimidin-4-yl)piperazin-1-yl]ethyl]cyclobutyl]-3-hydroxy-cyclobutanecarboxamide; 2,2,2-trifluoroacetic acid]
- D2/D3, Ki (D2L)/Ki (D3) [2]: +++ (+++ >50)
- microsomal CLint at 0.5 μM [3]: < 20 µL/min/mg

SMILES: CC(C)c1cc(N2CCN(CC[C@H]3CC[C@H](NC(=O)[C@H]4CC[C@H](O)CC4)CC3)C[C@@H]2C)nc(C(C)(C)C)n1 [Compound 41, Trans-N-[4-[2-[(3S)-4-(2-tert-butyl-6-isopropyl-pyrimidin-4-yl)-3-methyl-piperazin-1-yl]ethyl]cyclohexyl]-trans-4-hydroxy-cyclohexanecarboxamide]
- Ki [1]: < 10 nM
- D2/D3, Ki (D2L)/Ki (D3) [2]: +++ (+++ >50)

SMILES: CC(C)c1cc(N2CCN(CCC3CC(NC(=O)[C@H]4CC[C@H](O)CC4)C3)C[C@@H]2C)nc(C(C)(C)C)n1 (stereo partly drawn) [Compound 42, N-[3-[2-[(3S)-4-(2-tert-butyl-6-isopropyl-pyrimidin-4-yl)-3-methyl-piperazin-1-yl]ethyl]cyclobutyl]-trans-4-hydroxy-cyclohexanecarboxamide]
- Ki [1]: < 10 nM
- D2/D3, Ki (D2L)/Ki (D3) [2]: +++ (+++ >50)

SMILES: CC(C)c1cc(N2CCN(CC[C@H]3CC[C@@H](NC(=O)[C@H]4CC[C@H](O)CC4)CC3)CC2)nc(C(C)(C)C)n1 [Compound 43, Cis-N-[4-[2-[4-(2 tert-butyl-6-isopropyl-pyrimidin-4-yl)piperazin-1-yl]ethyl]cyclohexyl]-trans-4-hydroxy-cyclohexanecarboxamide]
- Ki [1]: < 10 nM
- D2/D3, Ki (D2L)/Ki (D3) [2]: +++ (+++ >50)

SMILES: C[C@H]1CN(CC[C@H]2CC[C@@H](NC(=O)[C@H]3CC[C@H](O)CC3)CC2)CCN1c1cc(C(F)F)nc(C(C)(C)C)n1 [Compound 44, Cis-N-[4-[2-[(3S)-4-[2-tert-butyl-6-(difluoromethyl)pyrimidin-4-yl]-3-methyl-piperazin-1-yl]ethyl]cyclohexyl]-trans-4-hydroxy-cyclohexanecarboxamide]
- Ki [1]: < 10 nM
- D2/D3, Ki (D2L)/Ki (D3) [2]: +++ (+++ >50)

SMILES: CC(C)c1cc(N2CCN(CCC3CC[C@H](NC(=O)[C@H]4CC[C@H](O)CC4)C3)C[C@@H]2C)nc(C(C)(C)C)n1 (stereo partly drawn) [Compound 45, Trans-N-[(1S)-3-[2-[(3S)-4-(2-tert-butyl-6-isopropyl-pyrimidin-4-yl)-3-methyl-piperazin-1-yl]ethyl]cyclopentyl]-4-hydroxy-cyclohexanecarboxamide]
- Ki [1]: < 10 nM
- D2/D3, Ki (D2L)/Ki (D3) [2]: +++ (+++ >50)

SMILES: CC(C)c1cc(N2CCN(CCC3CCC(NC(=O)[C@H]4CC[C@H](O)CC4)CC3)C[C@@H]2C)nc(C(C)(C)C)n1 (stereo partly drawn) [Compound 46, Trans-N-[4-[2-[(3S)-4-(2-tert-butyl-6-isopropyl-pyrimidin-4-yl)-3-methyl-piperazin-1-yl]ethyl]cyclohexyl]-4-hydroxy-cyclohexanecarboxamide]
- Ki [1]: < 10 nM
- D2/D3, Ki (D2L)/Ki (D3) [2]: +++ (+++ >50)

SMILES: CC(C)c1cc(N2CCN(CCC3CCC(NC(=O)[C@H]4C[C@H](O)C4)CC3)C[C@@H]2C)nc(C(C)(C)C)n1 (stereo partly drawn) [Compound 48, Trans-N-[4-[2-[(3S)-4-(2-tert-butyl-6-isopropyl-pyrimidin-4-yl)-3-methyl-piperazin-1-yl]ethyl]cyclohexyl]-3-hydroxycyclobutanecarboxamide]
- Ki [1]: < 10 nM
- D2/D3, Ki (D2L)/Ki (D3) [2]: +++ (+++ >50)
